Laboratory results as given in PubChem BioAssay (NCI).
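The concentration for 50% growth inhibition is given as GI50. TGI: concentration producing complete growth inhibition.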

Legend:
Assay in all cases: NCI-60 cell line screen, 384-well format
SK-MEL-28 melanoma = system: SK-MEL-28 melanoma
HL-60(TB) leukemia = system: HL-60(TB) leukemia
MALME-3M melanoma = system: MALME-3M melanoma
SF-268 CNS = system: SF-268 CNS
NCI-H460 NSCLC = system: NCI-H460 NSCLC
OVCAR-3 ovarian = system: OVCAR-3 ovarian
OVCAR-5 ovarian = system: OVCAR-5 ovarian
OVCAR-4 ovarian = system: OVCAR-4 ovarian
CCRF-CEM leukemia = system: CCRF-CEM leukemia
U251 glioblastoma = system: U251 glioblastoma
HT29 colon = system: HT29 colon
MDA-MB-435 melanoma = system: MDA-MB-435 melanoma
MDA-MB-231 breast = system: MDA-MB-231 breast
SR leukemia = system: SR leukemia
SK-MEL-2 melanoma = system: SK-MEL-2 melanoma
SF-539 CNS = system: SF-539 CNS
UO-31 renal = system: UO-31 renal
UACC-62 melanoma = system: UACC-62 melanoma
SW-620 colon = system: SW-620 colon
M14 melanoma = system: M14 melanoma
K-562 leukemia = system: K-562 leukemia
SN12C renal = system: SN12C renal
TK-10 renal = system: TK-10 renal
KM12 colon = system: KM12 colon
A549 NSCLC = system: A549 NSCLC
T-47D breast = system: T-47D breast
LOX IMVI melanoma = system: LOX IMVI melanoma
A498 renal = system: A498 renal
UACC-257 melanoma = system: UACC-257 melanoma
NCI-H23 lung = system: NCI-H23 lung
HCC-2998 colon = system: HCC-2998 colon
HOP-92 NSCLC = system: HOP-92 NSCLC
ACHN renal = system: ACHN renal
SF-295 CNS = system: SF-295 CNS
NCI-H226 lung = system: NCI-H226 lung
NCI/ADR-RES ovarian = system: NCI/ADR-RES ovarian
PC-3 prostate = system: PC-3 prostate
SNB-19 CNS = system: SNB-19 CNS
BT-549 breast = system: BT-549 breast
OVCAR-8 ovarian = system: OVCAR-8 ovarian
DU-145 prostate = system: DU-145 prostate
SK-OV-3 ovarian = system: SK-OV-3 ovarian
IGROV1 ovarian = system: IGROV1 ovarian
MDA-MB-468 breast = system: MDA-MB-468 breast
HOP-62 NSCLC = system: HOP-62 NSCLC
MOLT-4 leukemia = system: MOLT-4 leukemia
CAKI-1 renal = system: CAKI-1 renal
786-0 renal = system: 786-0 renal
RXF 393 renal = system: RXF 393 renal
HCT-116 colon = system: HCT-116 colon
SK-MEL-5 melanoma = system: SK-MEL-5 melanoma
COLO 205 colon = system: COLO 205 colon
NCI-H322M lung = system: NCI-H322M lung
NCI-H522 lung = system: NCI-H522 lung
HCT-15 colon = system: HCT-15 colon
MCF7 breast = system: MCF7 breast

CCN(C(=O)c1cc(F)ccc1Oc1cncnc1N1CC2(CCN(CC3CCC(NS(=O)(=O)CC)CC3)CC2)C1)C(C)C (configuration not stated)
GI50 (SK-MEL-28 melanoma): > 100 µM | TGI (SK-MEL-28 melanoma): > 100 µM | GI50 (HL-60(TB) leukemia): > 100 µM | TGI (HL-60(TB) leukemia): > 100 µM | GI50 (MALME-3M melanoma): > 100 µM | TGI (MALME-3M melanoma): > 100 µM | GI50 (SF-268 CNS): > 100 µM | TGI (SF-268 CNS): > 100 µM | GI50 (NCI-H460 NSCLC): > 100 µM | TGI (NCI-H460 NSCLC): > 100 µM | GI50 (OVCAR-3 ovarian): 63.5 µM | TGI (OVCAR-3 ovarian): > 100 µM | GI50 (OVCAR-5 ovarian): > 100 µM | TGI (OVCAR-5 ovarian): > 100 µM | GI50 (OVCAR-4 ovarian): 82.6 µM | TGI (OVCAR-4 ovarian): > 100 µM | GI50 (CCRF-CEM leukemia): 10.1 µM | TGI (CCRF-CEM leukemia): 43.1 µM | GI50 (U251 glioblastoma): > 100 µM | TGI (U251 glioblastoma): > 100 µM | GI50 (HT29 colon): > 100 µM | TGI (HT29 colon): > 100 µM | GI50 (MDA-MB-435 melanoma): > 100 µM | TGI (MDA-MB-435 melanoma): > 100 µM | GI50 (MDA-MB-231 breast): 18.7 µM | TGI (MDA-MB-231 breast): > 100 µM | GI50 (SR leukemia): 81.2 µM | TGI (SR leukemia): > 100 µM | GI50 (SK-MEL-2 melanoma): 24.5 µM | TGI (SK-MEL-2 melanoma): > 100 µM | GI50 (SF-539 CNS): > 100 µM | TGI (SF-539 CNS): > 100 µM | GI50 (UO-31 renal): > 100 µM | TGI (UO-31 renal): > 100 µM | GI50 (UACC-62 melanoma): > 100 µM | TGI (UACC-62 melanoma): > 100 µM | GI50 (SW-620 colon): > 100 µM | TGI (SW-620 colon): > 100 µM | GI50 (M14 melanoma): > 100 µM | TGI (M14 melanoma): > 100 µM | GI50 (K-562 leukemia): > 100 µM | TGI (K-562 leukemia): > 100 µM | GI50 (SN12C renal): > 100 µM | TGI (SN12C renal): > 100 µM | GI50 (TK-10 renal): > 100 µM | TGI (TK-10 renal): > 100 µM | GI50 (KM12 colon): > 100 µM | TGI (KM12 colon): > 100 µM | GI50 (A549 NSCLC): > 100 µM | TGI (A549 NSCLC): > 100 µM | GI50 (T-47D breast): 72.3 µM | TGI (T-47D breast): > 100 µM | GI50 (LOX IMVI melanoma): > 100 µM | TGI (LOX IMVI melanoma): > 100 µM | GI50 (A498 renal): 77.3 µM | TGI (A498 renal): > 100 µM | GI50 (UACC-257 melanoma): > 100 µM | TGI (UACC-257 melanoma): > 100 µM | GI50 (NCI-H23 lung): > 100 µM | TGI (NCI-H23 lung): > 100 µM | GI50 (HCC-2998 colon): 2.94 µM | TGI (HCC-2998 colon): > 100 µM | GI50 (HOP-92 NSCLC): 2.2 µM | TGI (HOP-92 NSCLC): 41.5 µM | GI50 (ACHN renal): > 100 µM | TGI (ACHN renal): > 100 µM | GI50 (SF-295 CNS): > 100 µM | TGI (SF-295 CNS): > 100 µM | GI50 (NCI-H226 lung): > 100 µM | TGI (NCI-H226 lung): > 100 µM | GI50 (NCI/ADR-RES ovarian): > 100 µM | TGI (NCI/ADR-RES ovarian): > 100 µM | GI50 (PC-3 prostate): > 100 µM | TGI (PC-3 prostate): > 100 µM | GI50 (SNB-19 CNS): > 100 µM | TGI (SNB-19 CNS): > 100 µM | GI50 (BT-549 breast): 92.7 µM | TGI (BT-549 breast): > 100 µM | GI50 (OVCAR-8 ovarian): > 100 µM | TGI (OVCAR-8 ovarian): > 100 µM | GI50 (DU-145 prostate): > 100 µM | TGI (DU-145 prostate): > 100 µM | GI50 (SK-OV-3 ovarian): > 100 µM | TGI (SK-OV-3 ovarian): > 100 µM | GI50 (IGROV1 ovarian): > 100 µM | TGI (IGROV1 ovarian): > 100 µM | GI50 (MDA-MB-468 breast): 65.5 µM | TGI (MDA-MB-468 breast): > 100 µM | GI50 (HOP-62 NSCLC): > 100 µM | TGI (HOP-62 NSCLC): > 100 µM | GI50 (MOLT-4 leukemia): 1.17 µM | TGI (MOLT-4 leukemia): 3.67 µM | GI50 (CAKI-1 renal): > 100 µM | TGI (CAKI-1 renal): > 100 µM | GI50 ([…]-0 renal): > 100 µM | TGI (786-0 renal): > 100 µM | GI50 (RXF 393 renal): 0.753 µM | TGI (RXF 393 renal): > 100 µM | GI50 (HCT-116 colon): > 100 µM | TGI (HCT-116 colon): > 100 µM | GI50 (SK-MEL-5 melanoma): > 100 µM | TGI (SK-MEL-5 melanoma): > 100 µM | GI50 (COLO 205 colon): 78.3 µM | TGI (COLO 205 colon): > 100 µM | GI50 (NCI-H322M lung): > 100 µM | TGI (NCI-H322M lung): > 100 µM | GI50 (NCI-H522 lung): 92.3 µM | TGI (NCI-H522 lung): > 100 µM | GI50 (HCT-15 colon): > 100 µM | TGI (HCT-15 colon): > 100 µM | GI50 (MCF7 breast): > 100 µM | TGI (MCF7 breast): > 100 µM
